The values that follow come from patent US12162836B2, “N-acyl-{4-[(4-aryl-phenyl)sulfonylmethyl]piperidine} compounds and their therapeutic use” (Modern Biosciences Limited, priority 2019, dated 2024).

Converted amounts (≈) assume the structure as drawn.

The subject of series [1] is Thp1 human monocytic cells. As to the kind of experiment: Thp1 Monocyte ATP Production Assay (ATPlite). Format: cell-based. The conditions noted are these: Thp1 cells, 24 hour incubation, mean of 2 independent experiments. The procedure:
In vitro potency of test compounds was determined by incubation with Thp1 human monocytic cells and subsequent determination of Adenosine TriPhosphate (ATP) levels using firefly luciferase.
ATP is present in all metabolically active cells. When cells lose integrity, their ability to synthesise ATP is rapidly lost. […] See, e.g., Kang et al., 2015; Jiang et al., 2013. Levels of ATP can be monitored using a system based on firefly (Photinus pyralis) luciferase (see, e.g., Auld et al., 2009) using commercially available kits. A system known as ATPlite™ was using to measure effects of the test compounds on cellular viability in vitro. This one-step assay system is an adenosine triphosphate (ATP) monitoring system based on the production of light caused by the reaction of ATP from the cells with added luciferase and D-luciferin, as illustrated in the reaction scheme below:
Thp1 cells were plated at 112500 cells per well in 125 μL RPMI-1640 (no glucose) with 1% FBS in 96-well plates. Test compounds were prepared as 100 mM solutions in DMSO. These stock solutions were diluted in DMSO and then diluted 1000× in culture medium (RPMI) before being added directly to the wells so as to give the desired final compound concentration. After a 24 hour incubation at 37° C./5% CO2, ATPLite™ (Perkin Elmer) was added to each well (1:10 v/v, 10 μL). The plate was then incubated at room temperature for 5 minutes and the emitted light was quantified on Viewlux with a measurement time of 0.3 seconds and binning 4×4.
The average results for each test compound were expressed as a percent (%) of the average control value reflecting cell viability. The average values across the concentrations tested were then plotted and the IC50 for was calculated by fitting the data to a 4-parameter IC50 equation using software from Graf it (Erithacus Software). Each experiment was repeated twice and the data are presented as the mean IC50 from both experiments.
On the technique in general: Cellular ATP, detected with luciferase, serves as a proxy for viable cell number.

Series [2] can be described thus: Human Hepatocyte Stability. Format: in vitro ADME. The conditions noted are these: pooled human hepatocytes, 1 μM, 60 minute incubation; for half-life at 1 μM: read-out: Human t1/2. The procedure: (§1) Metabolic stability of test compounds was measured by determination of the rate of disappearance of the compound when incubated in the presence of human hepatocytes, a primary source of the most important enzymes (cytochrome P450s) involved in drug metabolism. Study of drug stability in the presence of primary hepatocytes is accepted as a valuable model permitting rapid prediction of in vivo drug stability.
(§2) Human hepatocytes were obtained from a commercial source and viability was assessed using a trypan blue solution prior to use. Test compounds (final concentration 1 μM, 0.1 DMSO, 0.9% acetonitrile) or a marker (diclofenac or diltiazem, final assay concentration 1 μM, 0.1% DMSO, 0.9% acetonitrile) were incubated with pooled hepatocytes for a 60 minute period and samples removed at up to 6 time points and analysed by LC-MS/MS for the presence/amount of test compounds.
(§3) Each compound was incubated for 0, 5, 15, 30, 45, or 60 minutes. The reactions were stopped by the addition of methanol containing an internal standard (1 μM Tolbutamide) at the appropriate time points, mixed and placed at −20° C. for 1 hour to quench and allow protein to precipitate. All samples were centrifuged (2500× g, 20 minutes, 4° C.). The aliquots were analysed using LC-MS/MS. Reactions were performed in duplicate at 37° C.
(§4) Data were processed, and the results plotted as In(concentration) vs. time. The elimination rate constant (slope of the regression line, k) was calculated using the following formula, where C(t) is the concentration at time t and C(0) is the starting concentration:
(§5) The half-life (t1/2) was calculated using the following formula: […]
(§6) The intrinsic clearance (Clint) was calculated using the following formula, where [cell] is the hepatocyte concentration in the assay: […]

In the next series the test system is human hepatocytes. The series can be described thus: Human Hepatocyte Stability. Type of series: in vitro ADME. The conditions noted are these: for metabolic stability (in words): human hepatocytes. The procedure:
as §1, §2, §3, §4, §5, §6

A short description of series [3]: Aqueous solubility in FaSSIF. The conditions noted are these: for solubility at 16 h: kinetic from dmso stock, pH 6.5, 16 hours, room temperature. Format: physicochemical. On the procedure: Aqueous solubility was measured by equilibration of compounds with fasted state simulated intestinal fluid (FaSSIF) and quantified spectrophotometrically.
Preparation of blank FaSSIF: 0.21 g of sodium hydroxide (NaOH) pellets, 1.97 g of dihydrogen sodium phosphate (NaH2PO4.2H2O) and 3.09 g of sodium chloride (NaCl) were dissolved in 400 mL of deionised water. The pH was adjusted to 6.5 using 1 M hydrochloric acid and further deionised water added to a final volume of 500 mL.
Preparation of FaSSIF: 0.056 g of SIF Powder (containing sodium taurocholate and lecithin) (Pharses A G) was dissolved in 25 mL of blank FaSSIF and stirred until the powder was completely dissolved. The solution was allowed to stand for 2 hours during which it became opalescent; it was used within 24 hours. The final solution composition was characterised as follows: • Sodium taurocholate: 3 mM • Lecithin: 0.75 mM • Osmolarity: 270±10 mOsmol • pH: 6.5
The optical density was measured at the end of the incubation period for test compounds and a reference used to determine solubility. In brief, two samples were prepared for each determination: a reference sample consisting of a stock solution of test compound in DMSO diluted in system solution (a phosphate free, low absorption buffer) and propanol; and a test sample (prepared in triplicate) consisting of 0.5 mL FaSSIF spiked with test compound at 0.2 mM. Each sample was incubated at room temperature for 16 hours with constant shaking at 250 rpm. At the end of the incubation period, 0.3 mL of each sample was filtered through a pION filter plate (PION, Woburn MA), diluted 1:1 with propanol and scanned using UV spectrophotometry at Amax ([…]) using a Spectra Max Plus—Version 2.1000 (Molecular Devices, Sunnyvale, CA), with pSOL Explorer solubility determination software (pION, Woburn, MA).
FaSSIF solubility was calculated using the following formula:
[formula] • wherein: • “OD” is the optical density; • “Cr” is the concentration of the reference (33.4 μM); and • “molecular weight” is for the test compound (e.g., 381.44 for ABD735).

The next series has as its target hERG (Homo sapiens (Human), UniProt Q12809). As to the kind of experiment: hERG Ion Channel binding assay (3H astemizole displacement). The conditions noted are these: human, membranes of HEK293 cells stably expressing hERG, pH 7.4, probe 3H astemizole (1.5 nM); 30 μM; displacement of 3H astemizole, hERG-HEK293 membranes. On the procedure:
The activity of the compounds against the hERG ion channel was tested using a binding assay in stably transfected Human Embryonic Kidney cells (hERG-HEK293). hERG-HEK293 cells were cultured in MEM medium (Invitrogen)+10% FBS, glutamine and non-essential amino acids at 37° C. To prepare membranes, cells were homogenised on ice, centrifuged at 650×g for 10 minutes at +4° C., and the resulting supernatant centrifuged at 48000×g for 10 minutes at +4° C. The pellet was resuspended in ice-cold 50 mM Tris-HCl buffer, 5 mM KCl (pH 8.5) and stored frozen in aliquots until use.
For binding assays, membranes were thawed, re-suspended in assay buffer (10 mM HEPES pH 7.4, 0.1% BSA, 5 mM potassium chloride, 0.8 mM magnesium chloride, 130 mM sodium chloride, 1 mM sodium-EGTA, 10 mM glucose) and incubated with ^3H astemizole (1.5 nM), and with or without test compound at 25° C. for 60 minutes. Binding was determined following filtration of the membranes and washing in Tris-HCl buffer by scintillation counting of ^3H astemizole.
The degree of binding of compounds to the hERG ion channel (%) was obtained by measuring the binding of ^3H astemizole and its displacement by test compound. A value of 0% indicates no binding and a value of 100% indicates complete displacement of the radiolabelled ligand.
(Block of hERG is tested as a sign of cardiac risk.)

The mark [4] stands for this setting: Homo sapiens, THP-1, 9-point concentration range from 10 μM to 10 nM.
Setting [5] is: pooled human hepatocytes, 1 μM, 60 minute incubation.

Sequence of hERG (Q12809 whole entry): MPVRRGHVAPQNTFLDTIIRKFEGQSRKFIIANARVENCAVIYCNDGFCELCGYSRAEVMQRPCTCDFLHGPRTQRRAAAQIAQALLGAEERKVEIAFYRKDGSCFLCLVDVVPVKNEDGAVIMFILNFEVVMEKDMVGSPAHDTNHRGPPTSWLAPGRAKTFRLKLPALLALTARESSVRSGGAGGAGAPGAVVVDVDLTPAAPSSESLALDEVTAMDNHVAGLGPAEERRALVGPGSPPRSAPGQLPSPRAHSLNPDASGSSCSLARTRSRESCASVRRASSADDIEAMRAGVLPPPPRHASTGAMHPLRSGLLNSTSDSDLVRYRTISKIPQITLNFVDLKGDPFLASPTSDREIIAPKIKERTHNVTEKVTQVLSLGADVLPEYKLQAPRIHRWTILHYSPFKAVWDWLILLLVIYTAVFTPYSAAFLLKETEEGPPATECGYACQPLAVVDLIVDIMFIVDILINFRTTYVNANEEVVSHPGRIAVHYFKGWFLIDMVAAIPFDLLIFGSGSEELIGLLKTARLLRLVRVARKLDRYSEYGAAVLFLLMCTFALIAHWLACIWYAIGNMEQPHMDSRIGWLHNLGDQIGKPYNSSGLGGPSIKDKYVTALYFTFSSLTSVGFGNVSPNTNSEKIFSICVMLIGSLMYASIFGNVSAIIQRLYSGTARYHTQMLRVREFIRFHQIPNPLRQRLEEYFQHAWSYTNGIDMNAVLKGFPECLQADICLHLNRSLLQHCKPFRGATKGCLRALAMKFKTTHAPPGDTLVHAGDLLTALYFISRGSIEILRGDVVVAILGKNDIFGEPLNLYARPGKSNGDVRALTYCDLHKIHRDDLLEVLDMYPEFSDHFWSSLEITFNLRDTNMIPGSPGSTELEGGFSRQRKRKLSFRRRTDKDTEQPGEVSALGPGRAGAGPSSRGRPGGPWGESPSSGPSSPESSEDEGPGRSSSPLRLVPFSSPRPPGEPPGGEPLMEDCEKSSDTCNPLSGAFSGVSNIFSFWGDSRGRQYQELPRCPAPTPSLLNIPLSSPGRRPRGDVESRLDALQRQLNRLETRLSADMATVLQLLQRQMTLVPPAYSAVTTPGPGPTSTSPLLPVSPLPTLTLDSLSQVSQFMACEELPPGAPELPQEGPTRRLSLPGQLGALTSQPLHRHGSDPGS

The IC50 is the midpoint of a concentration-inhibition curve. A word on the hepatocyte CLint: it is a measure of how fast metabolising enzymes remove a compound, apart from limits set by blood flow. Lower therefore signals greater metabolic stability. A word on the solubility: it is how much of the substance goes into solution per volume. Low values mean little dissolved substance, high ones much dissolved substance. As a reminder, the inhibition is the percentage by which the read-out fell short of the control. The compound `CC(=O)N1CCC(CS(=O)(=O)c2ccc(-c3ccc(F)c(F)c3)cc2)CC1` [NASMP-02, 1-(4-(((3′,4′-Difluoro-[1,1′-biphenyl]-4-yl)sulfonyl)methyl)piperidin-1-yl)ethan-1-one] displayed an IC50 in series [1] (setting [4]) of 7900 nM. In addition, in series [2], the hepatocyte CLint at 1 μM is under 3 µL/min/1e6 cells and the half-life at 1 μM was over 7.67 h. The “metabolic stability (in words)” value in the series with human hepatocytes is reported as “exceptionally good stability”. The compound further returned a solubility at 16 h in series [3] of 32 µg/mL (≈ 81.3 µM). This compound also yielded an inhibition at 60 min, 30 µM on hERG of 30%.

In turn, `CC(=O)N1CCC(CS(=O)(=O)c2ccc(-c3ncc(F)cc3F)c(F)c2)CC1` [NASMP-11, 1-(4-(((4-(3,5-Difluoropyridin-2-yl)-3-fluorophenyl)sulfonyl)methyl)piperidin-1-yl)ethan-1-one] returned a half-inhibitory concentration (IC50) in series [1] (setting [4]) of 1600 nM. Also, in series [2], the hepatocyte CLint at 1 μM is 3.3 µL/min/1e6 cells and the half-life at 1 μM is over 1 h.

The compound `CC(=O)N1CCC(CS(=O)(=O)c2ccc(-c3ccc(C#N)cc3)c(F)c2)CC1` [NASMP-10, 4′-(((1-Acetylpiperidin-4-yl)methyl)sulfonyl)-2′-fluoro-[1,1′-biphenyl]-4-carbonitrile] yielded an IC50 in series [1] (setting [4]) of 3500 nM.

Turning to `CC(=O)N1CCC(CS(=O)(=O)c2ccc(-c3ccc(C#N)cc3F)cc2)CC1` [NASMP-04, 4′-(((1-Acetylpiperidin-4-yl)methyl)sulfonyl)-2-fluoro-[1,1′-biphenyl]-4-carbonitrile], in series [1] (setting [4]), the midpoint of inhibition, the IC50, lay at 1700 nM.

The compound `CC(=O)N1CCC(CS(=O)(=O)c2ccc(-c3cc(F)cc(F)c3)cc2)CC1` [NASMP-20, 1-(4-(((3′,5′-Difluoro-[1,1′-biphenyl]-4-yl)sulfonyl)methyl)piperidin-1-yl)ethan-1-one] had a concentration for half-maximal inhibition (IC50) in series [1] (Homo sapiens, THP-1, 8-point concentration range from 100 μM to 100 nM) of 18100 nM. Also, in series [2], the hepatocyte CLint at 1 μM is under 3 µL/min/1e6 cells and the half-life at 1 μM is over 7.67 h. The “metabolic stability (in words)” value with human hepatocytes is “exceptionally good stability”. In series [3], this compound yielded a solubility at 16 h of 37 µg/mL (≈ 94 µM). The compound further had an inhibition at 60 min, 30 µM at hERG of 39%.

Consider `CC(=O)N1CCC(CS(=O)(=O)c2ccc(-c3cccc(F)c3F)cc2)CC1` [NASMP-08, 1-(4-(((2′,3′-Difluoro-[1,1′-biphenyl]-4-yl)sulfonyl)methyl)piperidin-1-yl)ethan-1-one], for which the IC50 in series [1] (setting [4]) turned out to be 3800 nM.

As to `CC(=O)N1CCC(CS(=O)(=O)c2ccc(-c3cc(F)ccc3F)cc2)CC1` [NASMP-03, 1-(4-(((2′,5′-Difluoro-[1,1′-biphenyl]-4-yl)sulfonyl)methyl)piperidin-1-yl)ethan-1-one], in series [1] (setting [4]), 3000 nM corresponded to half-maximal inhibition (IC50). In series [2], the hepatocyte CLint at 1 μM is under 3 µL/min/1e6 cells and the half-life at 1 μM is over 7.67 h. Further, in the series with human hepatocytes, the “metabolic stability (in words)” value is given as “exceptionally good stability”. For the same compound, the solubility at 16 h in series [3] worked out at 42 µg/mL (≈ 107 µM). Also, the inhibition at 60 min, 30 µM at hERG was 20%.

Turning to `CC(=O)N1CCC(C(F)(F)S(=O)(=O)c2ccc(-c3ccc(F)cc3F)cc2)CC1` [NASMP-19, 1-(4-(((2′,4′-Difluoro-[1,1′-biphenyl]-4-yl)sulfonyl)difluoromethyl)piperidin-1-yl)ethan-1-one], the IC50 in series [1] (setting [4]) came to 2800 nM. For the same compound, in series [2], the hepatocyte CLint at 1 μM is 11.7 µL/min/1e6 cells and the half-life at 1 μM was found to be 1.92 h. This compound returned a solubility at 16 h in series [3] of 27 µg/mL (≈ 62.9 µM). Also, the inhibition at 60 min, 30 µM at hERG was 21%.

The compound `CN(C)C(=O)N1CCC(CS(=O)(=O)c2ccc(-c3ccc(F)cc3F)cc2)CC1` [NASMP-14, 4-(((2′,4′-Difluoro-[1,1′-biphenyl]-4-yl)sulfonyl)methyl)-N,N-dimethylpiperidine-1-carboxamide] came in with an IC50 in series [1] (setting [4]) of 1400 nM. In addition, in series [2], the intrinsic clearance (hepatocyte CLint) at 1 μM was determined as 28.2 µL/min/1e6 cells and the half-life at 1 μM turned out to be 0.97 h.

As to `CC(=O)N1CCC(CS(=O)(=O)c2ccc(-c3ccc(F)cc3F)c(C#N)c2)CC1` [NASMP-13, 4-(((1-Acetylpiperidin-4-yl)methyl)sulfonyl)-2′,4′-difluoro-[1,1′-biphenyl]-2-carbonitrile], the half-maximal inhibitory concentration (IC50) in series [1] (setting [4]) came out at 1700 nM.

Usually Solubility stands for the dissolved amount per volume that the medium holds. Lower therefore signals a poorly soluble substance. `CC1(O)CCC(NS(=O)(=O)c2ccc(-c3ccc(F)cc3F)cc2)CC1` (stereo not shown) [ABD900, reference compound] gave an IC50 in series [1] (9-point concentration range from 10 μM to 10 nM) of 1100 nM. In addition, in the series on human hepatocytes (setting [5]), the “Human Clint” value turned out to be 6.3 uL/min/million cells and the “Human t1/2” value was determined as 3.67 h. Further, the Solubility in series [3] (pH 6.8) came out at 120 µg/mL (≈ 315 µM).

As to `CC(=O)N1CCC(C)(CS(=O)(=O)c2ccc(-c3ccc(Cl)cc3C#N)cc2)CC1` [NASMP-16, 4′-(((1-Acetyl-4-methylpiperidin-4-yl)methyl)sulfonyl)-4-chloro-[1,1′-biphenyl]-2-carbonitrile], half-maximal inhibition in series [1] (setting [4]) (IC50) required 1500 nM. Further, the half-life at 1 μM in series [2] is over 1 h. Further, the “metabolic stability (in words)” value in the series on human hepatocytes is “exceptionally good stability”.
